# Assay results published in patent US10526416B2, “Anti-HER3 antibodies and uses of same” (Yeda Research and Development Co. Ltd., priority 2014, dated 2020).
# B1: NG140: anti-HER3 mAb; light chain CDRs SEQ ID NOs: 13-15, heavy chain CDRs 16-18 (antibody, V domains shown)
# VH: QVQLKESGPGLVKPSQSLSLTCSVTGYSITSGYYWNWIRQFPGNKLEWMGSIYYDGSNNYNPSLKNRISVTRDTSKNQFFLKLNSVTTEDTATYYCARDYDVGYAMDYWGQGASVTVSS
# VL: DIVLTQSSSYLSVSLGGRVTITCKASDHINNWLAWYQQKPGNAPRLLISGATSLETGVPSRFSGSGSGKDYTLSITSLQTEDVATYYCQQYWSIPWTFGGGTKLEIK
# modifications: VH chain of NG140 polypeptide; VL chain of NG140 polypeptide
# What was measured:
# H1975 NSCLC cells = assay: H1975 NSCLC tumor growth in CD1-nu/nu mice; assay type: in vivo
# PC9ER-AZDR cells = assay: MTT assay on PC9ER-AZDR cells; conditions: 72 hours treatment
# EGFR phosphorylation = assay: Western blot of EGFR phosphorylation in PC9ER-AZDR cells; assay type: cell-based, human; conditions: 6 hours, 1 μM
# Procedure: Cells were grown under specified conditions or treated as indicated. Following the cells were washed twice with cold PBS and scraped into lysis buffer [50 mM Hepes (pH 7.5), 10% glycerol, 150 mM NaCl, 1% Triton X-100, 1 mM EDTA, 1 mM EGTA, 10 mM NaF, 0.1 mM Na3VO4, and a complete protease inhibitor cocktail]. Thereafter, lysates were centrifuged at 14,000 g for 15 minutes at 4° C. The supernatant was used for subsequent procedures. Western blot analyses were conducted following protein separation using gel electrophoresis and transfer to nitrocellulose membranes. Immunoblotting was performed according to the antibody manufacturers' recommendation. Blocking was done using 5% milk in PBST (0.5% Tween20 Sigma Cat#P9416). Antibody binding to membrane blots was detected using horseradish peroxidase-secondary antibodies (Jackson ImmunoResearch Laboratories), followed by treatment with ECL Western blotting detection reagents (GE Healthcare).
# IgB3 = biological target: T1, IgB3 (Homo sapiens, UniProt P21860); assay: Antibody competition assay with Lumi4(Tb)-labeled NG33 on IgB3-coated plates; assay type: binding; conditions: NG33-K2 1 nM
# T1 construct: To produce IgB3 (recombinant HER3 extracellular domain fused to a human IgG Fc domain); made in house
# T1 sequence (P21860 20-643 limits assumed): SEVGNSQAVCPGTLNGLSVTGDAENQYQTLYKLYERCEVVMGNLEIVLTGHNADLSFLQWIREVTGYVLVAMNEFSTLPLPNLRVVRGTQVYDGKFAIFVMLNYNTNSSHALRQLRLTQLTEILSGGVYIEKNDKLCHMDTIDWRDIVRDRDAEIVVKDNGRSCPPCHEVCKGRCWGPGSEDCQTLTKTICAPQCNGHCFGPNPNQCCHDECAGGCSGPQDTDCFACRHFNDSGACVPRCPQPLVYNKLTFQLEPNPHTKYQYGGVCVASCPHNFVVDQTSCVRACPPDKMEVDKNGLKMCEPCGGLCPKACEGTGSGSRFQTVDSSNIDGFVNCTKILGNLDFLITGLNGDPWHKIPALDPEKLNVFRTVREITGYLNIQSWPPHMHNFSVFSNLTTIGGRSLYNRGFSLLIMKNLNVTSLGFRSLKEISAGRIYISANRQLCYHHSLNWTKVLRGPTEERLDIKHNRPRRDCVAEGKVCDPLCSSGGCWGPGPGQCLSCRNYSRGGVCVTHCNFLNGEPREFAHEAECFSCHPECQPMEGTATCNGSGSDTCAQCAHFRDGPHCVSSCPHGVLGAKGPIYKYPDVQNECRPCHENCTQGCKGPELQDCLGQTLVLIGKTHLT
# T1 sequence (P01857 99-330 partner limits assumed): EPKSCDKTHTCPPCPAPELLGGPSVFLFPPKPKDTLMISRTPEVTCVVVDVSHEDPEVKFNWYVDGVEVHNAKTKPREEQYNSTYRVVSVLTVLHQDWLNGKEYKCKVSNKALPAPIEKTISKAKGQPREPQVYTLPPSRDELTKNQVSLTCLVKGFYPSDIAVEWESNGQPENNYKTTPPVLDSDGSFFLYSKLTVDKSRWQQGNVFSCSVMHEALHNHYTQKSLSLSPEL
# Procedure: FIGS. 12A-D show a combination of two mAbs directed to two different epitopes of HER3. (FIGS. 12A and 12B) The antibodies NG33 and XC252 were labeled with the fluorescent dye Lumi4® Tb Cryptate (K2). 96 well-plate were coated with IgB3 (1.5 μg/ml), blocked with PBS-BSA and incubated for 1 h with various concentrations of mAbs under gentle shaking at RT. The labeled mAb, NG33-K2 (FIG. 12A) or XC252-K2 (FIG. 12B), was then added at 1 nM final concentration. After ah incubation, the plate was washed 4 times with KREBS buffer, and the fluorescence intensity at 610 nm was measured using a fluorescence microplate reader. (FIG. 12C) The various anti-HER3 mAb combinations were studied for their ability to trigger HER3 degradation using N87 cells. Cells were treated for 2 h at 37° C. with mAb (10 μg/ml). After cell lysis and protein extraction, the samples were subjected to immunoblotting with the indicated antibodies. (FIG. 12D) The combination's capacity to modulate NRG-induced phosphorylation of HER3, AKT and ERK was evaluated using N87 cells. After 20 min treatment at 37° C. with 10 μg/ml of mAbs, NRG (20 ng/ml) was added to the cells for 10 min. The cells were then lysed, and equal quantities of lysate protein were electrophoresed before immunoblotting, as indicated.
# Agent labeling was performed by Cisbio. […] Following 1 h incubation, the plate was washed 4 times with KREBS buffer (146 mM NaCl, 4 mM KCl, 0.5 mM MgCl2, 1 mM CaCl2, 10 mM Hepes, 1 gr/L glucose, and 1 mg/mL albumin), and the fluorescent intensity (excitation: 488 nm, emission: 610 nm) was measured using a fluorescence microplate reader. […] Finally, following two washes with KREBS buffer, the fluorescence intensity was measured at 670 nm (excitation: 620 nm).
# Combinations of antibodies directed against two different epitopes of the same receptor, as has been previously shown, can improve the effect of treatment with a single mAb (28, 29). […] First, it was determined which antibody from the anti-HER3 series targets an epitope distinct from that targeted by NG33. […]
# BxPC3 cells = assay: MTT assay on BxPC3 cells in culture; assay type: cell-based, human; conditions: 3 days
# Procedure: (§1) FIGS. 15A-F show the effects of a mixture of two anti HER3 mAbs, in vivo on BxPC3 cell xenografts and in vitro. (FIGS. 15A-C) CD1-Nude mice were grafted subcutaneously with 5×10^6 BxPC3 cells. Once tumors became palpable (after 13 days), the mice were randomized into group of 8 mice and treated every 3 days for 5 weeks. The control group (CTRL) was injected intra-peritoneally (IP) with 200 μl PBS. The other groups were treated with mAb alone or in combination at a final concentration of 0.2 mg/0.2 ml of PBS per mouse. The mice were weighted once a week and the tumors measured twice a week. An average tumor size of 7-8 mice (+/−SEM) is shown. (FIGS. 15D-F) Proliferation assays using MTT were performed on BxPC-3. 5,000 cells per well were plated the day before and treated for 72 h with the indicated mAb treatment. Decreasing concentrations of the indicated mAb (alone or in combination) were used in medium supplemented with 1% serum and NRG (10 ng/ml).
# To determine if the combination of NG33 mAb with another anti-HER3 mAb is more efficient than using NG33 alone, the combination of two mAbs, NG33 and XC252, was tested on several tumor cell lines, which were grafted subcutaneously (gastric: N87, lung: A549, pancreatic: BxPC3, ovarian: OVCAR-5, and head and neck: CAL-27, FIG. 14). This pilot was performed with 3 mice per group. Mice were injected twice a week with the mAb combination or with PBS. The best responder of these in vivo models for solid tumor growth was the BxPC3 xenograft model. […] This experiment was performed on 7 to 8 mice per group. The mice were treated every 3 days with PBS, each mAb alone or a mAb combination, for 5 weeks (0.2 mg/injection). […] In order to reinforce the in vivo data, the cytotoxicity of each mAb alone or in combination with NG33 was tested on BxPC3 cells in culture (FIGS. 15D, 15E and 15F). Decreasing concentrations of mAb were used and a MTT assay was performed following 3 days of treatment. […] On the contrary, XC252 used alone has a […] cytotoxic impact on BxPC3 proliferation leading to 60% inhibition of cell survival at high concentration.
# BxPC3 xenografts = assay: BxPC3 cell xenografts in CD1-Nude mice; assay type: in vivo; conditions: 0.2 mg/injection IP every 3 days for 5 weeks, 7 to 8 mice per group
# Procedure: as §1
# All animal studies were approved by the Weizmann Institute's Review Board (IRB). Tumor bearing CD1/nude mice were randomized in groups of five-ten mice and injected subcutaneously in the right flank with cancer cells (3-5×10^6 per mouse depending on the cell line). mAbs were injected intraperitoneally at a total dose of 200 μg per mouse per injection, twice a week, for 5 weeks or until tumors reached the size of 1,500 mm^3. In experiments evaluating the effect of the TKI AZD-9291, Vehicle (Vehicle formulation: HPMC 0.5% (sigma Cat#56340), Tween80 0.1% (Sigma Cat #P8074 in water), Erlotinib at a dose of 50 mg/kg per injection, or AZD9291 at a dose of 1 or 5 mg/kg per injection were injected daily intraperitoneally. In one experiment (FIG. 16), mice were treated daily with Erlotinib at a dose of 50 mg/kg per injection until tumors reached a size of 800 mm^3 and only then were treated as indicated. Tumor volume and body weight were evaluated twice and once per week, respectively. Mice were euthanized when tumor size reached 1,500 mm^3. […] Survival of the tumor bearing mice was recorded and depicted by Kaplan-Meier analysis. […]
Molecule,inhibition of H1975 tumor growth (H1975 NSCLC cells; AZD9291 5 mg/kg/day or triple mAbs),"body weight gain (H1975 NSCLC cells; H1975 tumor-bearing mice, AZD9291 5 mg/kg/day)",survival / sensitivity of PC9ER-AZDR cells (MTT) (PC9ER-AZDR cells),EGFR phosphorylation in PC9ER-AZDR cells on exposure (EGFR phosphorylation),effect on binding of Lumi4(Tb)-labeled NG33 to IgB3 (IgB3),effect on BxPC3 proliferation/survival (in words) (BxPC3 cells),effect on BxPC3 xenograft tumor growth (BxPC3 xenografts)
C=CC(=O)Nc1cc(Nc2nccc(-c3cn(C)c4ccccc34)n2)c(OC)cc1N(C)CCN(C)C [AZD-9291],comparably inhibited growth of the erlotinib-resistant human NSCLC,slightly inhibited body weight gain compared with the triple mAb combination,lost sensitivity to AZD-9291,EGFR remained phosphorylated,–,–,–
B1,–,–,–,–,did not alter NG33 binding,did not interfere with cell proliferation,no statistically significant ability to decrease tumor growth
